We go through six compounds from patent publication US5693628A, “11-benzaldoxime-estra-diene derivatives, methods for their production and pharmaceuticals containing these compounds” (priority 1994, dated 1997).

For assay [1], the target named is T1, progesterone receptor (Oryctolagus cuniculus, UniProt P06186).
T1 construct: uterine cytosol of the estradiol-primed rabbit; from tissue; host or cells: uterus (cytosol) of estradiol-primed rabbit
T1 sequence (P06186 1-930): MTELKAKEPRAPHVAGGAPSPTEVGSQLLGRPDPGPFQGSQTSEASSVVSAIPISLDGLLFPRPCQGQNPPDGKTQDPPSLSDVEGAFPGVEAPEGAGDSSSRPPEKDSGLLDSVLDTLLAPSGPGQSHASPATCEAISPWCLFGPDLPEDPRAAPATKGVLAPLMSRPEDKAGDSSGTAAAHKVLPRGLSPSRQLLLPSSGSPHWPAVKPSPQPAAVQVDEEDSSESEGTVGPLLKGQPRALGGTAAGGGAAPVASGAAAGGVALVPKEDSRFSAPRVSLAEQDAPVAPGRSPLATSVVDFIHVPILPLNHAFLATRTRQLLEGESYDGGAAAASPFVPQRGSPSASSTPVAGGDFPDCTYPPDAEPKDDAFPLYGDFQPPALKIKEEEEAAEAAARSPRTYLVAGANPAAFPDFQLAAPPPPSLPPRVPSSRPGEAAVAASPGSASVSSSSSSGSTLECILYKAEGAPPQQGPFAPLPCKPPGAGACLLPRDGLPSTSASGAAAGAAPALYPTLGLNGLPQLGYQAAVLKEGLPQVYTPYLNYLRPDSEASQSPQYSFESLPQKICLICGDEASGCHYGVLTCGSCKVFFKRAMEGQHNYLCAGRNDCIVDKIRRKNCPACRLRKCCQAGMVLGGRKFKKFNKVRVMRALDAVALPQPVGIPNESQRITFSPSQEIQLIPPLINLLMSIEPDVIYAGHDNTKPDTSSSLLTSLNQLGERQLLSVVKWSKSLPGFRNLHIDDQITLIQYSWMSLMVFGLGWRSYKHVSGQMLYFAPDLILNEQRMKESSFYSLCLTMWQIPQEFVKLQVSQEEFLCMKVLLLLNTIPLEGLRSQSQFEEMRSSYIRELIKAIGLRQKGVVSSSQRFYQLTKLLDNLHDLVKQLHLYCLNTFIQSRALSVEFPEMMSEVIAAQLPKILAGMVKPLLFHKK
The assay is described as follows: relative molar bonding affinity to progesterone receptor (competitive bonding). It is filed as binding. As to conditions: progesterone = 100%; uterine cytosol of estradiol-primed rabbit; 3H-ORG 2058, 5 nM; 18 h, 0-4° C. Here is the method: (§1) Measurement of bonding affinity for receptors
(§2) Receptor bonding affinity was determined by competitive bonding of a specifically binding ^3 H labelled hormone (tracer) and the compound to be tested to receptors in the cytosol from animal target organs. It was tried to obtain receptor saturation and a balanced reaction. The following incubation conditions were selected:
Progesterone receptor: uterine cytosol of the estradiol-primed rabbit, kept at -30° C. in TED buffer (20 mM Tris/HCl, pH 7.4; 1 mM ethylene diamine tetraacetate, 2 mM dithio threitol) with 250 mM of saccharose.
(§3) After an incubation period of 18 hours at 0°-4° C., bonded and free steroid was separated by mixing in active carbon/dextrane (1%/0.1%), centrifuging off and measuring the bonded ^3 H activity in the supernatant.
(§4) The IC50 for the compound to be tested and for the reference substance were determined from measurements in series of concentrations.

The target in assay [2] is T2, glucocorticoid receptor (Rattus norvegicus, UniProt P06536).
T2 construct: thymus cytosol of the adrenalectomized rat; from tissue; host or cells: thymus (cytosol) of adrenalectomized rat
T2 sequence (P06536 1-795): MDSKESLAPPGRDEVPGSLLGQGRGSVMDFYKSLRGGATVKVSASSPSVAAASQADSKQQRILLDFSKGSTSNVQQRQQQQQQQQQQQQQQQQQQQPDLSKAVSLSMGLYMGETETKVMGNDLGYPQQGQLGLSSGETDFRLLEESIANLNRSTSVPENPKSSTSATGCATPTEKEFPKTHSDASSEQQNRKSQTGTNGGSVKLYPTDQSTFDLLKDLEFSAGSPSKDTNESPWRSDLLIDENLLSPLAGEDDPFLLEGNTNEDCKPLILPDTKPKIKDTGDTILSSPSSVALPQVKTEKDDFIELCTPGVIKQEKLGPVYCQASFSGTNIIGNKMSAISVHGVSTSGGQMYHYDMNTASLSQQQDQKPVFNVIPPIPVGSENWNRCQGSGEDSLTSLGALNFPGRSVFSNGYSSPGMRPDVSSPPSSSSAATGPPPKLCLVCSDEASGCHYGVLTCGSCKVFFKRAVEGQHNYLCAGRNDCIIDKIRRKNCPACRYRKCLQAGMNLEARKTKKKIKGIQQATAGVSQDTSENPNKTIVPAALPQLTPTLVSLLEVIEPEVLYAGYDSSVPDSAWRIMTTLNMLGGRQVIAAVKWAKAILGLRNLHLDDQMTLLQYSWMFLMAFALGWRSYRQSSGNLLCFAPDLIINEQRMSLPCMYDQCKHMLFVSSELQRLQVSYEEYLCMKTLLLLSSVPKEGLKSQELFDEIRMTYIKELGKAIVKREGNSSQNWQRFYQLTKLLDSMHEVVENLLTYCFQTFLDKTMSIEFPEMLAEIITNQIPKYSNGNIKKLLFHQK
Nature of the assay: relative molar bonding affinity to glucocorticoid receptor (competitive bonding). It is filed as binding. The settings on record: dexamethasone = 100%; thymus cytosol of adrenalectomized rat; 3H-dexamethasone, 20 nM; 18 h, 0-4° C. Here is the method: as §1, §2
Glucocorticoid receptor: thymus cytosol of the adrenalectomized rat, thymi kept at -30° C., buffer: TED. Tracer: ^3 H-dexamethasone, 20 nM; reference substance: dexamethasone.
as §3, §4

Assay [3] concerns the target T3, oestrogen receptor (Oryctolagus cuniculus, UniProt G1SML6).
T3 construct: uterine cytosol of the immature rabbit; from tissue; host or cells: uterus (cytosol) of immature rabbit
T3 sequence (G1SML6 1-598): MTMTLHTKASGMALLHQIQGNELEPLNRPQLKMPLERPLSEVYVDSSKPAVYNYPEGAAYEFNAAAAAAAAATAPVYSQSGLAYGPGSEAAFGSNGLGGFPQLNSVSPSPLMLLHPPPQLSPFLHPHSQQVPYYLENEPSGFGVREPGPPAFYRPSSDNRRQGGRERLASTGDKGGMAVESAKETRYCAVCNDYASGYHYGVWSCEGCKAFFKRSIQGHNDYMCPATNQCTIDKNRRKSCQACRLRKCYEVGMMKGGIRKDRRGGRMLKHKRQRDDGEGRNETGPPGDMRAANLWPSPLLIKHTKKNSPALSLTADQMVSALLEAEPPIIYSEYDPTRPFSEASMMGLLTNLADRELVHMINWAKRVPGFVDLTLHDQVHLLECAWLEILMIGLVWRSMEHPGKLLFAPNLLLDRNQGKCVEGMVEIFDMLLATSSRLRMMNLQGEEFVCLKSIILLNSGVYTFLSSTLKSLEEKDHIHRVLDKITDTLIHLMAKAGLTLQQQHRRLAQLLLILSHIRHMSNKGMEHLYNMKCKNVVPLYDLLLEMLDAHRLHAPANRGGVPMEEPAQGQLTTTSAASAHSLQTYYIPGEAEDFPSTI
The assay is described as follows: relative molar bonding affinity to oestrogen receptor (competitive bonding). As to conditions: estradiol = 100%; uterine cytosol of immature rabbit; 3H-ethinyl estradiol, 3 nM; 18 h, 0-4° C. The format is binding. How it is done:
as §1, §2
Oestrogen receptor: uterine cytosol of the immature rabbit, kept at -30° C. in TED buffer with 250 mM of saccharose. Tracer: ^3 H-ethinyl estradiol, 3 nM; reference substance: 17β-estradiol.
as §3
The IC50 for the compound to be tested and for the reference substance were determined from measurements in series of concentrations. The quotient of both values (×100%) is the relative molar bonding affinity.

Assay [4] deals with early gravidity in the rat. Nature of the assay: Early abortive effect / inhibition of early gravidity in the rat. The format is in vivo. As to conditions: 5th to 7th day of pregnancy; for complete gravidity inhibition % / complete gravidity inhibition N*/N (females not pregnant/inseminated females): empty uteri. How it is done:
Inhibition of early gravidity in the rat
Female rats are mated in the pro-oestrus. If semen is found in the vaginal smear on the next day, this day is counted as day 1 (=d1) of the gravidity. Treatment with the test substance or vehicle is applied on d5-d7, autopsy is carried out on d9. The substances are injected subcutaneously in 0.2 ml of vehicle (benzyl benzoate/castor oil 1+4).

The test system of assay [5] is uterine weight in cyclic guinea pigs. The assay is described as follows: Influence on uterine weight in cyclic guinea pigs. It is filed as in vivo, guinea pig. An excerpt:
FIG. 1. is a chart showing a comparison of the influence on uterine weight in cyclic guineau pigs when treated with the antigestagen agents RU 486, a control (the vehicle), and a compound of the present invention, J 867 (as prepared in accordance with Example 1).
FIG. 1 compares the influence of antigestagen treatment of cyclic guinea pigs on uterine weights for J 867 and RU 486.
Treatment of female guinea pigs with antigestagen
Treatment of adult female guinea pigs from day 10 to day 18 of the cycle (autopsy). Administration of the specified doses using subcutaneous osmotic pumps (Type 2 ML1 ALZET). Vehicle: […] propylene glycol/24 hrs.

Regarding `COC[C@]1(OC)CC[C@H]2[C@@H]3CCC4=CC(=O)CCC4=C3[C@@H](c3ccc(C=NOC)cc3)C[C@@]21C` [Example 2, 11β-[4-(methoximinomethyl)phenyl]-17β-methoxy-17α-methoxymethyl-estra-4,9-diene-3-on], the “relative molar bonding affinity (RBA) to progesterone receptor” value in assay [1] stood at 136%. For the same compound, in assay [2], the “relative molar bonding affinity (RBA) to glucocorticoid receptor” value was found to be 82%. The “relative molar bonding affinity (RBA) to oestrogen rec.” value in assay [3] is listed as less than 0.1%.

On to `COC[C@]1(OC)CC[C@H]2[C@@H]3CCC4=CC(=O)CCC4=C3[C@@H](c3ccc(C=NOC(C)=O)cc3)C[C@@]21C` [Example 3, 11β-[4-(acetyloximinomethyl)phenyl]-17β-methoxy-17α-methoxymethyl-estra-4,9-diene-3-on], for which the “relative molar bonding affinity (RBA) to progesterone receptor” value in assay [1] is 236%. For the same compound, the “relative molar bonding affinity (RBA) to glucocorticoid receptor” value in assay [2] is 73%. For the same compound, the “relative molar bonding affinity (RBA) to oestrogen rec.” value in assay [3] was less than 0.1%.

As to `CCOC(=O)ON=Cc1ccc([C@H]2C[C@@]3(C)[C@@H](CC[C@]3(COC)OC)[C@@H]3CCC4=CC(=O)CCC4=C32)cc1` [Example 4], the “relative molar bonding affinity (RBA) to progesterone receptor” value in assay [1] is given as 294%. For the same compound, the “relative molar bonding affinity (RBA) to glucocorticoid receptor” value in assay [2] was 66%. Besides, the “relative molar bonding affinity (RBA) to oestrogen rec.” value in assay [3] is less than 0.1%.

On to `C[C@]12C[C@H](c3ccc(C=NO)cc3)C3=C4CCC(=O)C=C4CC[C@H]3[C@@H]1CC[C@@]2(O)CCl` [Example 5, 17α-chloromethyl-11β-[4-(hydroximinomethyl)phenyl]-17β-hydroxy-estra-4,9-diene-3-on], for which, in assay [1], the “relative molar bonding affinity (RBA) to progesterone receptor” value turned out to be 90%. Moreover, in assay [2], the “relative molar bonding affinity (RBA) to glucocorticoid receptor” value is listed as 32%. The “relative molar bonding affinity (RBA) to oestrogen rec.” value in assay [3] is on record as less than 0.1%.

As for `CC#C[C@]1(O)CC[C@H]2[C@@H]3CCC4=CC(=O)CCC4=C3[C@@H](c3ccc(N(C)C)cc3)C[C@@]21C` [RU 486, Mifepristone, reference compound], the “relative molar bonding affinity (RBA) to glucocorticoid receptor” value in assay [2] is recorded as 685%. The “complete gravidity inhibition %” value worked out at 0% in assay [4] (0.3 mg/animal/day s.c.), 40% in assay [4] (1.0 mg/animal/day s.c.) and 100% in assay [4] (3.0 mg/animal/day s.c.). Moreover, the figures for the “complete gravidity inhibition N*/N (females not pregnant/inseminated females)” value in assay [4] (0.3 mg/animal/day s.c.), in assay [4] (1.0 mg/animal/day s.c.) and in assay [4] (3.0 mg/animal/day s.c.) were 0/5, 2/5 and 5/5, respectively. The “ED 50” value in assay [4] (s.c., graphic determination) is on record as 1.3 mg/animal/day. Further, in assay [5] (6 mg/24 hrs, s.c. osmotic pump, day 10 to 18 of cycle), the “uterine weights of cyclic guinea pigs, high dose” value is reported as “reduce the uterine weights of the treated animals”. For the same compound, the “uterine weights in the anovulatorial cycle in guinea pigs” value in assay [5] (doses at which RU 486 increases uterine weights, compared with control animals) is listed as “increases uterine weights”. In addition, the “uterine weights of cyclic guinea pigs, low dose” value in assay [5] (low dosis, s.c. osmotic pump, day 10 to 18 of cycle) is “slight gain in uterine weights”.

Consider `CN(C)c1ccc([C@H]2C[C@]3(C)[C@@H](CC[C@]3(O)CCCO)[C@@H]3CCC4=CC(=O)CCC4=C32)cc1` [ZK 98299, Onapristone, reference compound], for which, in assay [1], the “relative molar bonding affinity (RBA) to progesterone receptor” value was determined as 22%. Also, in assay [2], the “relative molar bonding affinity (RBA) to glucocorticoid receptor” value came to 39%.
